Results as given in article PMC5435703 (Scientific Reports, 2017).
In brackets after ≈: the same amount, converted by molar mass. Like-named read-outs stand apart in the source and are kept apart here.

Legend:
MRSA BAA-1707 [1] = experiment: MIC broth microdilution assay; type: cell-based, Staphylococcus aureus
MRSA BAA-44 = experiment: MIC broth microdilution assay; type: cell-based; settings: Staphylococcus aureus
MRSA-1 = experiment: MIC broth microdilution assay; type: cell-based, Staphylococcus aureus; settings: Staphylococcus aureus, MRSA; Table 1; read-out: MIC MRSA-1
MRSA-2 = experiment: MIC broth microdilution assay; type: cell-based, Staphylococcus aureus; settings: Staphylococcus aureus, MRSA; Table 1; read-out: MIC MRSA-2
MRSE 35984 = experiment: MIC broth microdilution assay; type: cell-based, Staphylococcus epidermidis
S. epi 12228 = experiment: MIC broth microdilution assay; type: cell-based, Staphylococcus epidermidis; settings: Staphylococcus epidermidis, 12228; Table 1; read-out: MIC S. epi 12228
MtB H37Ra = experiment: MIC assay for Mycobacterium tuberculosis; type: cell-based; settings: 168 h, seven days
[2] = LDH release assay for HeLa cytotoxicity; type: cell-based; settings: human, HeLa cells; LDH release, 24 hours; tested at 25, 50 and 100 µM; read-out: HeLa Cytotox. IC50
MRSA BAA-1707 [3] = experiment: MIC assay with metal(II) cation co-treatment; type: cell-based, Staphylococcus aureus
UV-Vis metal(II) binding = type: physicochemical; settings: UV-Vis kinetics, compared to HP 1
Method: The rates of halogenated phenazine-copper(II) complex formation were independently evaluated via UV-Vis spectrometry following addition of 0.5 equivalents copper(II) sulfate to stirring solutions of HP (10 mM, 4 mL) in dimethyl sulfoxide. Spectral scanning was performed from 200 to 800 nm in 2 nm increments. The disappearance of HPs 1, 17 and 22 was observed over the indicated time points. The halogenated phenazine-copper(II) complex formation yielded a loss in absorbance due to precipitation.

MRSA BAA-1707 [4] = experiment: Calgary Biofilm Device (CBD) MBC/MBEC assay; type: cell-based, Staphylococcus aureus; settings: for MRSA BAA-1707 MBEC: biofilm eradication
four MRSA isolates = experiment: MIC assays, panel of four MRSA isolates; type: cell-based; settings: Staphylococcus aureus, range over isolates, read-out: MIC against a panel of four MRSA isolates
S. epidermidis = experiment: MIC assays, S. epidermidis strains; type: cell-based; settings: Staphylococcus epidermidis; range over strains
[5] = Hemolysis assay with red blood cells; settings: human, pH 7.2
MRSA-1707 biofilms [6] = experiment: Live/Dead staining (fluorescence microscopy) of biofilms; settings: 0.1, 1 and 5 µM, 24 hours
Method: A mid-log culture of MRSA BAA-1707 was diluted 1:1,000-fold and 500 µL was transferred to each compartment of a 4 compartment CELLview dish (Greiner Bio-One 627871). The dish was then incubated for 24 hours at 37 °C. After this time, the cultures were removed and the plate was washed with 0.9% saline. The dish was then treated with the compounds in fresh media at various concentrations. DMSO was used as our negative control in this assay. The dish was incubated with the compound for 24 hours at 37 °C. After this time, the cultures were removed and the dish was washed with 0.9% saline for 2 minutes. Saline was then removed and 500 µL of the stain (Live/Dead BacLight Viability Kit, Invitrogen) were added for 15 minutes and left in the dark. After this time, the stain was removed and the dish was washed twice with 0.9% saline. Then the dish was fixed with 500 µL 4% paraformaldehyde in PBS for 30 minutes. Images of remaining MRSA biofilms were then taken with a fluorescence microscope. All data were analyzed using ImageJ software from three independent experiments.
E.) Live / Dead staining (Fluorescence Microscopy) of MRSA BAA-1707 Biofilms: […]
the cultures were removed and the dish was washed with 0.9% saline for 2 minutes. […] Images of remaining MRSA biofilms were then taken with a fluorescence microscope. All data were analyzed using Image J software from three

VRE 700221 [7] = experiment: MIC broth microdilution assay; type: cell-based, Enterococcus faecium
VRE 700221 [8] = experiment: Calgary Biofilm Device (CBD) MBC/MBEC assay; type: cell-based, Enterococcus faecium; settings: CBD
MRSA-1707 biofilms [9] = experiment: CBD pulse biofilm eradication experiment; type: cell-based, Staphylococcus aureus; settings: two subsequent 24 hour compound treatment phases
S. aureus = system: S. aureus; parameters: method as in PMID 24389824; settings: initial studies; cited from earlier work

## Cc1cccc2nc3c(O)c(Br)cc(Br)c3nc12 [HP 17, 6-methyl-2,4-dibromo-1-hydroxyphenazine]
MRSA BAA-1707 [1]; Staphylococcus aureus, Table 3, read-out: MRSA BAA-1707 MIC
  MIC: 0.3 µM (≈ 0.11 µg/mL)
MRSA BAA-1707 [1]; Staphylococcus aureus, single plate shown as picture, read-out: MIC (µM), MIC Assay against MRSA BAA-1707
  MIC: 0.2 µM (≈ 0.0736 µg/mL)
MRSA BAA-44; single plate shown as picture, read-out: MIC (µM), MIC Assay Against MRSA BAA-44
  MIC: 0.39 µM (≈ 0.144 µg/mL)
MRSA BAA-44; Table 1, read-out: MIC MRSA BAA-44
  MIC: 0.39 µM (≈ 0.144 µg/mL)
MRSA-1
  MIC: ≤ 0.1 µM
MRSA-2
  MIC: 0.3 µM (≈ 0.11 µg/mL)
MRSE 35984; Staphylococcus epidermidis, MRSE, Table 3, read-out: MRSE 35984 MIC
  MIC: 0.3 µM (≈ 0.11 µg/mL)
S. epi 12228
  MIC: 0.39 µM (≈ 0.144 µg/mL)
MtB H37Ra
  MIC: 25 µM (≈ 9.2 µg/mL)
[2]
  IC50 at 24 h: > 100 µM
MRSA BAA-1707 [3]; Staphylococcus aureus, Cu(II) co-treatment plate, lanes without metal, read-out: MIC
  MIC: 0.2 µM
MRSA BAA-1707 [3]; Staphylococcus aureus, Fe(II) co-treatment plate, lanes without metal, read-out: MIC
  MIC: 0.39 µM
MRSA BAA-1707 [3]; Staphylococcus aureus, Mg(II) co-treatment plate, lanes without metal, read-out: MIC
  MIC: 0.2 µM
MRSA BAA-1707 [3]; Staphylococcus aureus, Table 2, MRSA BAA-1707, no metal(II) cation added, read-out: MIC
  MIC: 0.3 µM
MRSA BAA-1707 [3]; Staphylococcus aureus, Zn(II) extended plate assay, lanes without metal, read-out: MIC
  MIC: 0.2 µM
MRSA BAA-1707 [3]; Staphylococcus aureus, copper(II) at 200 µM co-treatment, read-out: MIC w/Cu2+
  MIC: 75 µM
MRSA BAA-1707 [3]; Staphylococcus aureus, extended plate assay, 200 µM Zn(II), read-out: MIC (µM) + Zn(II)
  MIC: 0.05 µM
MRSA BAA-1707 [3]; Staphylococcus aureus, iron(II) at 200 µM co-treatment, read-out: MIC w/Fe2+
  MIC: 12.5 µM
MRSA BAA-1707 [3]; Staphylococcus aureus, magnesium(II) at 200 µM co-treatment, read-out: MIC w/Mg2+
  MIC: 0.3 µM
MRSA BAA-1707 [3]; Staphylococcus aureus, single plate, 200 µM Fe(II), read-out: MIC (µM) + Fe(II)
  MIC: 12.5 µM
MRSA BAA-1707 [3]; Staphylococcus aureus, single plate, 200 µM Mg(II), read-out: MIC (µM) + Mg(II)
  MIC: 0.2 µM
MRSA BAA-1707 [3]; Staphylococcus aureus, zinc(II) at 200 µM co-treatment, read-out: MIC w/Zn2+
  MIC: 0.05 µM
MRSA BAA-1707 [3]; single plate, 200 µM Cu(II), read-out: MIC (µM) + Cu(II)
  MIC: 50 µM
UV-Vis metal(II) binding
  rate of copper(II) chelation: faster rate than HP 1
MRSA BAA-1707 [4]; CBD, 24 hours treatment
  MRSA BAA-1707 MBEC: 6.25/6.25 µM
MRSA BAA-1707 [4]; Figure 7A, single CBD plate
  MRSA-1707 Biofilm Eradication MBEC: 6.25 µM
MRSA BAA-1707 [4]; Staphylococcus aureus, 24 h, CBD, planktonic killing, 24 hours treatment, read-out: MRSA BAA-1707 MBC
  MBC: 6.25 µM (≈ 2.3 µg/mL)
MRSA BAA-1707 [4]; Staphylococcus aureus, 24 h, supplement page 27, first CBD plate, read-out: MRSA Planktonic Killing MBC
  MBC: 6.25 µM (≈ 2.3 µg/mL)
MRSA BAA-1707 [4]; Staphylococcus aureus, Figure 7A, single CBD plate, read-out: MRSA-1707 Planktonic Eradication MBC
  MBC: 6.25 µM (≈ 2.3 µg/mL)
Four MRSA isolates
  MIC: 0.05 to 0.59 µM (≈ 0.0184 to 0.217 µg/mL)
S. epidermidis
  MIC: 0.3 to 0.39 µM (≈ 0.11 to 0.144 µg/mL)
[5]
  hemolysis at 1 h, 200 µM: 6.7%
MRSA-1707 biofilms [6]
  Live/Dead staining response of established biofilms: potent biofilm eradication and clearance response

## CCCCCCCCCCCCCCCC[N+](C)(C)Cc1ccccc1.[Cl-] [BAC-16, reference compound]
MRSA BAA-1707 [1]; Table 1, three independent experiments, read-out: MIC MRSA BAA-1707
  MIC: 1.56 µM
MRSA BAA-1707 [1]; Table 3, read-out: MRSA BAA-1707 MIC
  MIC: 1.56 µM
MRSE 35984; Table 1, read-out: MIC MRSE 35984
  MIC: 1.56 µM
MRSE 35984; Table 3, read-out: MRSE 35984 MIC
  MIC: 1.56 µM
VRE 700221 [7]; Table 1, read-out: MIC VRE 700221
  MIC: 3.13 µM
VRE 700221 [7]; Table 3, read-out: VRE 700221 MIC
  MIC: 3.13 µM
MRSA BAA-1707 [4]; CBD, 24 hours treatment
  MRSA BAA-1707 MBEC: 15.6 µM
MRSA BAA-1707 [4]; CBD, planktonic killing, 24 hours treatment, read-out: MRSA BAA-1707 MBC
  MBC: 31.3 µM
VRE 700221 [8]; biofilm eradication
  VRE 700221 MBEC: 3.0 µM
VRE 700221 [8]; planktonic killing, read-out: VRE 700221 MBC
  MBC: 5.9 µM
MRSA-1707 biofilms [9]
  MBEC, pulse treatment: 25 µM

## Oc1c(Br)ccc2nc3ccccc3nc12 [2-bromo-1-hydroxyphenazine, reference compound]
S. aureus
  MIC S. aureus: 6.25 µM (≈ 1.72 µg/mL)
